pIC50: −log10 of the molar value.
Assays:
Experiment in all cases: cells
Settings in all cases: Homo sapiens
UACC-257 = assay type: functional, cell-based
Description: SANGER: Inhibition of human UACC-257 cell growth in a cell viability assay.

HT = assay type: functional, cell-based
Description: SANGER: Inhibition of human HT cell growth in a cell viability assay.

LB831-BLC = assay type: functional, cell-based;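 note: growth inhibition of LB831-BLC cells, read out with a cell viability assay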
Description: SANGER: Inhibition of human LB831-BLC cell growth in a cell viability assay.

ETK-1 = assay type: functional, cell-based;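 note: growth inhibition of human ETK-1 cells, read out with a cell viability assay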
Description: SANGER: Inhibition of human ETK-1 cell growth in a cell viability assay.

GT3TKB = assay type: functional, cell-based;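 note: growth inhibition of the cell line, read out with a cell viability assay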
Description: SANGER: Inhibition of human GT3TKB cell growth in a cell viability assay.

CCRF-CEM = assay type: functional, cell-based;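 note: inhibition of CCRF-CEM cell growth, measured by a cell viability assay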
Description: SANGER: Inhibition of human CCRF-CEM cell growth in a cell viability assay.

MMAC-SF = assay type: functional, cell-based;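 note: growth inhibition of human MMAC-SF cells, read out with a cell viability assay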
Description: SANGER: Inhibition of human MMAC-SF cell growth in a cell viability assay.

NB69 = assay type: functional, cell-based;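 note: growth inhibition of NB69 cells, determined by a cell viability assay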
Description: SANGER: Inhibition of human NB69 cell growth in a cell viability assay.

RPMI-8866 = assay type: functional, cell-based
Description: SANGER: Inhibition of human RPMI-8866 cell growth in a cell viability assay.

LS-411N = assay type: functional, cell-based
ML-2 = assay type: functional, cell-based;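 note: growth inhibition of ML-2 cells, measured with a cell viability readout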
Description: SANGER: Inhibition of human ML-2 cell growth in a cell viability assay.

ONS-76 = assay type: functional, cell-based;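 note: growth inhibition of human ONS-76 cells, read out with a cell viability assay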
Description: SANGER: Inhibition of human ONS-76 cell growth in a cell viability assay.

A101D = assay type: functional, cell-based;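 note: growth inhibition of the cell line, measured with a viability assay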
Description: SANGER: Inhibition of human A101D cell growth in a cell viability assay.

DMS-114 = assay type: functional, cell-based
JVM-3 = assay type: functional, cell-based;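 note: growth inhibition of human JVM-3 cells, read out with a cell viability assay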
Description: SANGER: Inhibition of human JVM-3 cell growth in a cell viability assay.

ES1 = assay type: functional, cell-based;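 note: growth inhibition of ES1 cells, read out with a cell viability assay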
Description: SANGER: Inhibition of human ES1 cell growth in a cell viability assay.

SHP77 = assay type: functional, cell-based, SHP-77;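 note: growth inhibition of human SHP-77 cells measured by a cell viability assay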
Description: SANGER: Inhibition of human SHP-77 cell growth in a cell viability assay.

NCI-H1395 = assay type: functional, cell-based;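 note: cell viability assay read-out quantifying reduced proliferation of human NCI-H1395 cells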
Description: SANGER: Inhibition of human NCI-H1395 cell growth in a cell viability assay.

A388 = assay type: functional, cell-based;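 note: growth inhibition of human A388 cells, read out with a cell viability assay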
Description: SANGER: Inhibition of human A388 cell growth in a cell viability assay.

LOX IMVI = assay type: functional, cell-based
Description: SANGER: Inhibition of human LOXIMVI cell growth in a cell viability assay.

DOHH-2 = assay type: functional, cell-based;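 note: growth inhibition of human DOHH-2 cells, read out with a cell viability assay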
Description: SANGER: Inhibition of human DOHH-2 cell growth in a cell viability assay.

KNS-81-FD = assay type: functional, cell-based;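 note: growth inhibition of KNS-81-FD cells, read out with a cell viability assay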
Description: SANGER: Inhibition of human KNS-81-FD cell growth in a cell viability assay.

C2BBe1 = assay type: functional, cell-based;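 note: growth inhibition of C2BBe1 cells, read out through a viability assay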
Description: SANGER: Inhibition of human C2BBe1 cell growth in a cell viability assay.

MFH-ino = assay type: functional, cell-based;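 note: growth inhibition of human MFH-ino cells, read out by a cell viability assay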
Description: SANGER: Inhibition of human MFH-ino cell growth in a cell viability assay.

ACN = assay type: functional, cell-based;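 note: growth inhibition of the human ACN cell line, read out via cell viability testing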
Description: SANGER: Inhibition of human ACN cell growth in a cell viability assay.

K562 = assay type: functional, cell-based
Description: SANGER: Inhibition of human K-562 cell growth in a cell viability assay.

KLE = assay type: functional, cell-based;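 note: growth inhibition of human KLE cells, read out with a cell viability assay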
Description: SANGER: Inhibition of human KLE cell growth in a cell viability assay.

COLO-668 = assay type: functional, cell-based
Description: SANGER: Inhibition of human COLO-668 cell growth in a cell viability assay.

SF-126 = assay type: functional, cell-based;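 note: growth inhibition of human SF126 cells, read out with a cell viability assay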
Description: SANGER: Inhibition of human SF126 cell growth in a cell viability assay.

SK-PN-DW = assay type: functional, cell-based;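 note: growth inhibition measured with a viability assay on these cells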
Description: SANGER: Inhibition of human SK-PN-DW cell growth in a cell viability assay.

ES4 = assay type: functional, cell-based;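 note: growth inhibition of human ES4 cells, read out by a cell viability assay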
Description: SANGER: Inhibition of human ES4 cell growth in a cell viability assay.

NB5 = assay type: functional, cell-based;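 note: growth inhibition of NB5 cells, read out as cell viability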
Description: SANGER: Inhibition of human NB5 cell growth in a cell viability assay.

TE-6 = assay type: functional, cell-based;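 note: growth inhibition of TE-6 cells, read out with a cell viability assay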
Description: SANGER: Inhibition of human TE-6 cell growth in a cell viability assay.

BB65-RCC = assay type: functional, cell-based;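 note: growth inhibition of the cell line, measured with a cell viability assay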
Description: SANGER: Inhibition of human BB65-RCC cell growth in a cell viability assay.

SNB-75 = assay type: functional, cell-based;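 note: cell viability assay measuring growth inhibition of human SNB-75 cells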
Description: SANGER: Inhibition of human SNB75 cell growth in a cell viability assay.

LXF-289 cell line = assay type: functional, cell-based
Description: SANGER: Inhibition of human LXF-289 cell growth in a cell viability assay.

COLO-824 = assay type: functional, cell-based
Description: SANGER: Inhibition of human COLO-824 cell growth in a cell viability assay.

DU-4475 = assay type: functional, cell-based
Description: SANGER: Inhibition of human DU-4475 cell growth in a cell viability assay.

TGBC24TKB = assay type: functional, cell-based;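 note: growth inhibition of human TGBC24TKB cells, read out with a cell viability assay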
Description: SANGER: Inhibition of human TGBC24TKB cell growth in a cell viability assay.

L-428 = assay type: functional, cell-based
Description: SANGER: Inhibition of human L-428 cell growth in a cell viability assay.

OCI-AML2 = assay type: functional, cell-based;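 note: growth inhibition of OCI-AML2 cells, read out with a cell viability assay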
Description: SANGER: Inhibition of human OCI-AML2 cell growth in a cell viability assay.

SW 954 = assay type: functional, cell-based;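 note: growth inhibition of SW954 human cancer cells, read out as cell viability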
Description: SANGER: Inhibition of human SW954 cell growth in a cell viability assay.

SNU-C2B = assay type: functional, cell-based;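 note: cell viability readout used to measure compound-driven suppression of SNU-C2B cell proliferation, IC50 marking half-maximal growth inhibition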
Description: SANGER: Inhibition of human SNU-C2B cell growth in a cell viability assay.

LB1047-RCC = assay type: functional, cell-based;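 note: inhibition of cell growth, determined with a cell viability assay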
Description: SANGER: Inhibition of human LB1047-RCC cell growth in a cell viability assay.

NB6 = assay type: functional, cell-based
Description: SANGER: Inhibition of human NB6 cell growth in a cell viability assay.

KM-H2 = assay type: functional, cell-based;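 note: growth inhibition of KM-H2 cells, read out by a cell viability assay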
Description: SANGER: Inhibition of human KM-H2 cell growth in a cell viability assay.

HCE-T = assay type: functional, cell-based;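 note: cell viability assay read-out, reporting inhibition of HCE-T cell growth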
Description: SANGER: Inhibition of human HCE-T cell growth in a cell viability assay.

697 = assay type: functional, cell-based
Description: SANGER: Inhibition of human 697 cell growth in a cell viability assay.

COLO-829 = assay type: functional, cell-based
Description: SANGER: Inhibition of human COLO-829 cell growth in a cell viability assay.

KM12 = assay type: functional, cell-based;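 note: KM12 cell growth inhibition, read out with a cell viability assay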
Description: SANGER: Inhibition of human KM12 cell growth in a cell viability assay.

QIMR-WIL = assay type: functional, cell-based;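 note: growth inhibition of QIMR-WIL cells, read out with a cell viability assay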
Description: SANGER: Inhibition of human QIMR-WIL cell growth in a cell viability assay.

IA-LM = assay type: functional, cell-based;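 note: cell viability assay measuring growth inhibition of human IA-LM cells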
Description: SANGER: Inhibition of human IA-LM cell growth in a cell viability assay.

TE-10 = assay type: functional, cell-based;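 note: growth inhibition of TE-10 cells, measured by a cell viability assay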
Description: SANGER: Inhibition of human TE-10 cell growth in a cell viability assay.

GI-1 = assay type: functional, cell-based;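 note: growth inhibition of human GI-1 cells, measured with a cell viability readout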
Description: SANGER: Inhibition of human GI-1 cell growth in a cell viability assay.

ES3 = assay type: functional, cell-based;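 note: growth inhibition of ES3 cells, read out with a cell viability assay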
Description: SANGER: Inhibition of human ES3 cell growth in a cell viability assay.

HuTu80 = assay type: functional, cell-based, HUTU-80;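 note: growth inhibition of HuTu80 human cells, determined with a cell viability readout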
Description: SANGER: Inhibition of human HUTU-80 cell growth in a cell viability assay.

U-87 MG = assay type: functional, cell-based, U-87MG ATCC;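 note: growth inhibition of the cells measured with a viability assay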
Description: SANGER: Inhibition of human U-87-MG cell growth in a cell viability assay.

BB30-HNC = assay type: functional, cell-based;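 note: growth inhibition of the cultured cell line, read out by a cell viability assay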
Description: SANGER: Inhibition of human BB30-HNC cell growth in a cell viability assay.

HCE-4 = assay type: functional, cell-based;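 note: cell viability assay measuring inhibition of growth in the human HCE-4 cell line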
Description: SANGER: Inhibition of human HCE-4 cell growth in a cell viability assay.

LS-1034 = assay type: functional, cell-based
Description: SANGER: Inhibition of human LS-1034 cell growth in a cell viability assay.

Ramos-2G6-4C10 = assay type: functional, cell-based;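 note: growth inhibition of the cell line, measured by a cell viability read-out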
Description: SANGER: Inhibition of human Ramos-2G6-4C10 cell growth in a cell viability assay.

TK-10 = assay type: functional, cell-based;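 note: growth inhibition of TK-10 cells, read out in a cell viability assay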
Description: SANGER: Inhibition of human TK10 cell growth in a cell viability assay.

A4-Fuk = assay type: functional, cell-based;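 note: growth inhibition of A4-Fuk cells, read out by a cell viability assay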
Description: SANGER: Inhibition of human A4-Fuk cell growth in a cell viability assay.

MHH-PREB-1 = assay type: functional, cell-based;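 note: cell viability assay measuring inhibition of proliferation of human MHH-PREB-1 cells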
Description: SANGER: Inhibition of human MHH-PREB-1 cell growth in a cell viability assay.

NCI-H226 = assay type: functional, cell-based;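 note: cell viability read-out used to gauge growth inhibition of the cells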
Description: SANGER: Inhibition of human NCI-H226 cell growth in a cell viability assay.

Cc1[nH]c(/C=C2\C(=O)Nc3ccc(S(=O)(=O)Cc4c(Cl)cccc4Cl)cc32)c(C)c1C(=O)N1CCC[C@@H]1CN1CCCC1 [PHA-665752]
pIC50 (UACC-257): < 5.70 | pIC50 (HT): < 5.70 | pIC50 (LB831-BLC): < 5.70 | pIC50 (ETK-1): < 5.70 | pIC50 (GT3TKB): < 5.70 | pIC50 (CCRF-CEM): < 5.70 | pIC50 (MMAC-SF): < 5.70 | pIC50 (NB69): < 5.70 | pIC50 (RPMI-8866): < 5.70 | pIC50 (LS-411N): < 5.70 | pIC50 (ML-2): < 5.70 | pIC50 (ONS-76): < 5.70 | pIC50 (A101D): < 5.70 | pIC50 (DMS-114): < 5.70 | pIC50 (JVM-3): < 5.70 | pIC50 (ES1): < 5.70 | pIC50 (SHP77): < 5.70 | pIC50 (NCI-H1395): < 5.70 | pIC50 (A388): < 5.70 | pIC50 (LOX IMVI): < 5.70 | pIC50 (DOHH-2): < 5.70 | pIC50 (KNS-81-FD): < 5.70 | pIC50 (C2BBe1): < 5.70 | pIC50 (MFH-ino): < 5.70 | pIC50 (ACN): < 5.70 | pIC50 (K562): < 5.70 | pIC50 (KLE): < 5.70 | pIC50 (COLO-668): < 5.70 | pIC50 (SF-126): < 5.70 | pIC50 (SK-PN-DW): < 5.70 | pIC50 (ES4): < 5.70 | pIC50 (NB5): < 5.70 | pIC50 (TE-6): < 5.70 | pIC50 (BB65-RCC): < 5.70 | pIC50 (SNB-75): < 5.70 | pIC50 (LXF-289 cell line): < 5.70 | pIC50 (COLO-824): < 5.70 | pIC50 (DU-4475): < 5.70 | pIC50 (TGBC24TKB): < 5.70 | pIC50 (L-428): < 5.70 | pIC50 (OCI-AML2): < 5.70 | pIC50 (SW 954): < 5.70 | pIC50 (SNU-C2B): < 5.70 | pIC50 (LB1047-RCC): < 5.70 | pIC50 (NB6): < 5.70 | pIC50 (KM-H2): < 5.70 | pIC50 (HCE-T): < 5.70 | pIC50 697: < 5.70 | pIC50 (COLO-829): < 5.70 | pIC50 (KM12): < 5.70 | pIC50 (QIMR-WIL): < 5.70 | pIC50 (IA-LM): < 5.70 | pIC50 (TE-10): < 5.70 | pIC50 (GI-1): < 5.70 | pIC50 (ES3): < 5.70 | pIC50 (HuTu80): < 5.70 | pIC50 (U-87 MG): < 5.70 | pIC50 (BB30-HNC): < 5.70 | pIC50 (HCE-4): < 5.70 | pIC50 (LS-1034): < 5.70 | pIC50 (Ramos-2G6-4C10): < 5.70 | pIC50 (TK-10): < 5.70 | pIC50 (A4-Fuk): < 5.70 | pIC50 (MHH-PREB-1): < 5.70 | pIC50 (NCI-H226): < 5.70

CO[C@@]12[C@H](COC(N)=O)C3=C(C(=O)C(C)=C(N)C3=O)N1C[C@@H]1N[C@@H]12 [MITOMYCIN]
pIC50 (UACC-257): 5.81 | pIC50 (HT): 5.81 | pIC50 (LB831-BLC): 6.09 | pIC50 (ETK-1): 6.97 | pIC50 (GT3TKB): 6.50 | pIC50 (CCRF-CEM): 7.21 | pIC50 (MMAC-SF): 5.99 | pIC50 (NB69): 6.76 | pIC50 (RPMI-8866): 5.88 | pIC50 (LS-411N): 6.49 | pIC50 (ML-2): > 7.20 | pIC50 (ONS-76): 6.48 | pIC50 (A101D): 6.59 | pIC50 (DMS-114): 5.68 | pIC50 (JVM-3): 5.58 | pIC50 (ES1): > 7.20 | pIC50 (SHP77): 5.86 | pIC50 (NCI-H1395): 5.65 | pIC50 (A388): 6.68 | pIC50 (LOX IMVI): 6.45 | pIC50 (DOHH-2): 7.03 | pIC50 (KNS-81-FD): 5.80 | pIC50 (C2BBe1): 5.03 | pIC50 (MFH-ino): 7.15 | pIC50 (ACN): 6.89 | pIC50 (K562): 5.70 | pIC50 (KLE): 5.53 | pIC50 (COLO-668): > 7.20 | pIC50 (SF-126): 5.85 | pIC50 (SK-PN-DW): 7.20 | pIC50 (ES4): > 7.20 | pIC50 (NB5): 6.45 | pIC50 (TE-6): 6.05 | pIC50 (BB65-RCC): 6.84 | pIC50 (SNB-75): 6.52 | pIC50 (LXF-289 cell line): 7.26 | pIC50 (COLO-824): 5.84 | pIC50 (DU-4475): 7.32 | pIC50 (TGBC24TKB): 6.15 | pIC50 (L-428): 5.94 | pIC50 (OCI-AML2): > 7.20 | pIC50 (SW 954): 7.35 | pIC50 (SNU-C2B): 6.53 | pIC50 (LB1047-RCC): > 7.20 | pIC50 (NB6): 5.65 | pIC50 (KM-H2): 6.88 | pIC50 (HCE-T): 6.43 | pIC50 697: > 7.20 | pIC50 (COLO-829): 5.68 | pIC50 (KM12): 5.97 | pIC50 (QIMR-WIL): 6.92 | pIC50 (IA-LM): 6.96 | pIC50 (TE-10): 7.14 | pIC50 (GI-1): 7.45 | pIC50 (ES3): > 7.20 | pIC50 (HuTu80): > 7.20 | pIC50 (U-87 MG): 5.89 | pIC50 (BB30-HNC): 7.51 | pIC50 (HCE-4): 7.24 | pIC50 (LS-1034): 7.52 | pIC50 (Ramos-2G6-4C10): 5.59 | pIC50 (TK-10): 6.28 | pIC50 (A4-Fuk): 6.65 | pIC50 (MHH-PREB-1): 5.50 | pIC50 (NCI-H226): 6.11

From ChEMBL document CHEMBL1201861, “Genomics of Drug Sensitity in Cancer screening data, Wellcome Trust Sanger Institute”
